{"source": "patent US20220313678A1", "about": "(priority 2021, published 2022)", "key": {"[1]": {"conditions": "free base (non-protonated); cited from earlier work"}, "[2]": {"conditions": "1:1 v:v, about 25° C., about 24 hours", "experimental": "Each of Samples 1-8 is prepared by and measured according to the following method. Liquid nicotine is added at the target nicotine concentration to a vessel containing an oil phase. The oil phase containing nicotine is mixed with an aqueous phase at a one-to-one volume ratio (v:v) using an orbital shaker at about 100 rotations per minute (rpm) for about 5 minutes to prepare a nicotine oil: aqueous phase mix. The nicotine oil: aqueous phase mix is allowed to sit at room temperature (about 25° C.) for about 24 hours. A concentration of nicotine in each of the oil phase and the nicotine phase is measured using a liquid chromatography method. A partition coefficient, which is a ratio concentrations of a compound (i.e., nicotine) in two immiscible solvents (i.e., an oil phase and an aqueous phase) at equilibrium, is calculated for each sample. The partition coefficient is a comparison of the solubilities of the nicotine in the two liquid phases.\nSamples 1-6 include MCT oil (CAS No. 73398-61-5) as an oil phase. Sample 7 includes triacetin oil as an oil phase. Sample 8 includes triolein oil as an oil phase. Sample 1 includes deionized (DI) water as an aqueous phase. Sample 2 includes basified DI water having a pH of 7.4 as an aqueous phase. Sample 3 includes artificial saliva having a pH of 6.8 as an aqueous phase. Artificial saliva simulates mucus conditions. […]"}}, "note": "Where two headings read alike, the source gives them in different places.", "data": [{"molecule": "CN1CCCC1c1cccnc1", "note": "(stereo not drawn) [nicotine, 3-(1-methyl-2-pyrrolidinyl) pyridine]", "values": [{"measurement": "pKa value", "setting": "[1]", "result": "about 8"}, {"measurement": "partition coefficient (oil phase : aqueous phase)", "setting": "[2]; Samples 1-4: MCT oil vs DI water, basified DI water pH 7.4, artificial saliva pH 6.8, acidified DI water pH 2", "result": "greater than 1"}, {"measurement": "partition coefficient (oil phase : aqueous phase)", "setting": "[2]; Samples 5-8: MCT, triacetin or triolein oil vs 1M acetic acid pH adjuster pH 2", "result": "less than 1"}]}]}
